Test results from patent publication US10821115B2, “Compounds that inhibit Mcl-1 protein” (priority 2017, dated 2020).

How the values were obtained:
[1] = target: recombinant human Mcl-1 (residues 171-327) / Bim interaction (Homo sapiens (Human), UniProt Q07820); experiment: biochemical; format: binding; settings: 0.1 nM Mcl-1(171-327), 0.05 nM biotin-Bim (51-76); read-out: Mcl-1 HTRF IC50
[2] = system: human multiple myeloma cell line, OPM-2; experiment: Cell viability assay (OPM-2 10 FBS), CellTiter-Glo; format: cell-based; settings: Homo sapiens, OPM-2, 16 h, read-out: OPM-2 10% FBS IC50 IP, OPM-2 cells, 10% FBS, 16 h incubation
Summary of the method: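 Serially diluted test compounds are incubated 16 h with cells (3000/well) in RPMI 1640 supplemented with 10% FBS. Viability is then measured by luminescence and IC50 calculated by 4-parameter logistic fit.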

recombinant human Mcl-1 (residues 171-327) / Bim interaction, sequence (Q07820 171-327): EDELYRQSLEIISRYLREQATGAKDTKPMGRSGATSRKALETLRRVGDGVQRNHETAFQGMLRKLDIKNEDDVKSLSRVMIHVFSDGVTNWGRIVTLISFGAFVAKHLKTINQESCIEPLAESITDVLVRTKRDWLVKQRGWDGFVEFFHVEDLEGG

| SMILES | IC50 [1] | IC50 [2] |
| --- | --- | --- |
| CO[C@@]1(CN2CC(C)(N(C)C)C2)/C=C/C[C@H](C)[C@@H](C)S(=O)(=O)NC(=O)c2ccc3c(c2)N(C[C@@H]2CC[C@H]21)C[C@@]1(CCCc2cc(Cl)ccc21)CO3 [Example 59, (1S,3′R,6′R,7′S,8′E,11′S,12′R)-6-chloro-7′-((3-(dimethylamino)-3-methyl-1-azetidinyl)methyl)-7′-methoxy-11′,12′-dimethyl-3,4-dihydro-2H,15′H-spiro[naphthalene-1,22′-[20]oxa[13]thia[1,14]diazatetracyclo [14.7.2.0~3,6~.0~19,24~]pentacosa[8,16,18,24]tetraen]-15′-one 13′,13′-dioxide] | 0.116 nM | 48 nM |
| CO[C@]1(CN2CC(C)(N(C)C)C2)/C=C/C[C@H](C)[C@@H](C)S(=O)(=O)NC(=O)c2ccc3c(c2)N(C[C@@H]2CC[C@H]21)C[C@@]1(CCCc2cc(Cl)ccc21)CO3 [Example 60, (1S,3′R,6′R,7′R,8′E,11′S,12′R)-6-chloro-7′-((3-(dimethylamino)-3-methyl-1-azetidinyl)methyl)-7′-methoxy-11′,12′-dimethyl-3,4-dihydro-2H,15′H-spiro[naphthalene-1,22′-[20]oxa[13]thia[1,14]diazatetracyclo [14.7.2.0~3,6~.0~19,24~]pentacosa[8,16,18,24]tetraen]-15′-one 13′,13′-dioxide] | 0.287 nM | 129 nM |
| COCCN1CCN(C[C@@]2(OC)/C=C/C[C@H](C)[C@@H](C)S(=O)(=O)NC(=O)c3ccc4c(c3)N(C[C@@H]3CC[C@H]32)C[C@@]2(CCCc3cc(Cl)ccc32)CO4)CC1 [Example 61, (1S,3′R,6′R,7′R,8′E,11′S,12′R)-6-chloro-7′-methoxy-7′-((4-(2-methoxyethyl)-1-piperazinyl)methyl)-11′,12′-dimethyl-3,4-dihydro-2H,15′H-spiro[naphthalene-1,22′-[20]oxa[13]thia[1,14]diazatetracyclo [14.7.2.0~3,6~.0~19,24~]pentacosa[8,16,18,24]tetraen]-15′-one 13′,13′-dioxide] | 0.075 nM | 124 nM |
| CO[C@]1(CN2CCN(C)CC2)/C=C/C[C@H](C)[C@@H](C)S(=O)(=O)NC(=O)c2ccc3c(c2)N(C[C@@H]2CC[C@H]21)C[C@@]1(CCCc2cc(Cl)ccc21)CO3 [Example 62] | 0.115 nM | 110 nM |
| CO[C@@]1(CN2CCN3C(=O)OC[C@@H]3C2)/C=C/C[C@H](C)[C@@H](C)S(=O)(=O)NC(=O)c2ccc3c(c2)N(C[C@@H]2CC[C@H]21)C[C@@]1(CCCc2cc(Cl)ccc21)CO3 [Example 63, (1S,3′R,6′R,7′S,8′E,11′S,12′R)-6-chloro-7′-methoxy-11′,12′-dimethyl-7′-(((8aS)-3-oxotetrahydro[1,3]oxazolo[3,4-a]pyrazin-7(1H)-yl)methyl)-3,4-dihydro-2H,15′H-spiro[naphthalene-1,22′-[20]oxa[13]thia[1,14]diazatetracyclo [14.7.2.0~3,6~.0~19,24~]pentacosa[8,16,18,24]tetraen]-15′-one 13′,13′-dioxide] | 0.173 nM | 582 nM |
| CO[C@]1(CN2CCN3C(=O)OC[C@@H]3C2)/C=C/C[C@H](C)[C@@H](C)S(=O)(=O)NC(=O)c2ccc3c(c2)N(C[C@@H]2CC[C@H]21)C[C@@]1(CCCc2cc(Cl)ccc21)CO3 [Example 64, (1S,3′R,6′R,7′R,8′E,11′S,12′R)-6-chloro-7′-methoxy-11′,12′-dimethyl-7′-(((8aS)-3-oxotetrahydro[1,3]oxazolo[3,4-a]pyrazin-7(1H)-yl)methyl)-3,4-dihydro-2H,15′H-spiro[naphthalene-1,22′-[20]oxa[13]thia[1,14]diazatetracyclo [14.7.2.0~3,6~.0~19,24~]pentacosa[8,16,18,24]tetraen]-15′-one 13′,13′-dioxide] | 0.126 nM | 201 nM |
| CNC[C@]1(OC)/C=C/C[C@H](C)[C@@H](C)S(=O)(=O)NC(=O)c2ccc3c(c2)N(C[C@@H]2CC[C@H]21)C[C@@]1(CCCc2cc(Cl)ccc21)CO3 [Example 65, (1S,3′R,6′R,7′S,8′E,11′S,12′R)-6-chloro-7′-methoxy-11′,12′-dimethyl-7′-((methylamino)methyl)-3,4-dihydro-2H,15′H-spiro[naphthalene-1,22′-[20]oxa[13]thia[1,14]diazatetracyclo [14.7.2.0~3,6~.0~19,24~]pentacosa[8,16,18,24]tetraen]-15′-one 13′,13′-dioxide] | 0.451 nM | 1500 nM |
| CO[C@@]1(CN(C)C)/C=C/C[C@H](C)[C@@H](C)S(=O)(=O)NC(=O)c2ccc3c(c2)N(C[C@@H]2CC[C@H]21)C[C@@]1(CCCc2cc(Cl)ccc21)CO3 [Example 66, (1S,3′R,6′R,7′S,8′E,11′S,12′R)-6-chloro-7′-((dimethylamino)methyl)-7′-methoxy-11′,12′-dimethyl-3,4-dihydro-2H,15′H-spiro[naphthalene-1,22′-[20]oxa[13]thia[1,14]diazatetracyclo [14.7.2.0~3,6~.0~19,24~]pentacosa[8,16,18,24]tetraen]-15′-one 13′,13′-dioxide] | 0.246 nM | 318 nM |
| CO[C@@]1(CN2CC(C)(C#N)C2)/C=C/C[C@H](C)[C@@H](C)S(=O)(=O)NC(=O)c2ccc3c(c2)N(C[C@@H]2CC[C@H]21)C[C@@]1(CCCc2cc(Cl)ccc21)CO3 [Example 67, 1-(((1S,3′R,6′R,7′S,8′E,11′S, 12′R)-6-chloro-7′-methoxy-11′,12′-dimethyl-13′,13′-dioxido-15′-oxo-3,4-dihydro-2H-spiro[naphthalene-1,22′-[20]oxa[13]thia[1,14]diazatetracyclo [14.7.2.0~3,6~.0~19,24~]pentacosa[8,16,18,24]tetraen]-7′-yl)methyl)-3-methyl-3-azetidinecarbonitrile] | 0.197 nM | 149 nM |
| CO[C@@]1(CN2CCC=C(F)C2)/C=C/C[C@H](C)[C@@H](C)S(=O)(=O)NC(=O)c2ccc3c(c2)N(C[C@@H]2CC[C@H]21)C[C@@]1(CCCc2cc(Cl)ccc21)CO3 [Example 68, (1S,3′R,6′R,7′S,8′E,11′S,12′R)-6-chloro-7′-((5-fluoro-3,6-dihydro-1(2H)-pyridinyl)methyl)-7′-methoxy-11′,12′-dimethyl-3,4-dihydro-2H,15′H-spiro[naphthalene-1,22′-[20]oxa[13]thia[1,14]diazatetracyclo [14.7.2.0~3,6~.0~19,24~]pentacosa[8,16,18,24]tetraen]-15′-one 13′,13′-dioxide] | 0.397 nM | 1520 nM |
| CO[C@]1(CN(C)C)/C=C/C[C@H](C)[C@@H](C)S(=O)(=O)NC(=O)c2ccc3c(c2)N(C[C@@H]2CC[C@H]21)C[C@@]1(CCCc2cc(Cl)ccc21)CO3 [Example 69, (1S,3′R,6′R,7′R,8′E,11′S,12′R)-6-chloro-7′-((dimethylamino)methyl)-7′-methoxy-11′,12′-dimethyl-3,4-dihydro-2H,15′H-spiro[naphthalene-1,22′-[20]oxa[13]thia[1,14]diazatetracyclo [14.7.2.0~3,6~.0~19,24~]pentacosa[8,16,18,24]tetraen]-15′-one 13′,13′-dioxide] | 3.83 nM | 1480 nM |
| CNC[C@@]1(OC)/C=C/C[C@H](C)[C@@H](C)S(=O)(=O)NC(=O)c2ccc3c(c2)N(C[C@@H]2CC[C@H]21)C[C@@]1(CCCc2cc(Cl)ccc21)CO3 [Example 70, (1S,3′R,6′R,7′R,8′E,11′S,12′R)-6-chloro-7′-methoxy-11′,12′-dimethyl-7′-((methylamino)methyl)-3,4-dihydro-2H,15′H-spiro[naphthalene-1,22′-[20]oxa[13]thia[1,14]diazatetracyclo [14.7.2.0~3,6~.0~19,24~]pentacosa[8,16,18,24]tetraen]-15′-one 13′,13′-dioxide] | 1.33 nM | 3140 nM |
| CO[C@]1(CN2CC(C)(C#N)C2)/C=C/C[C@H](C)[C@@H](C)S(=O)(=O)NC(=O)c2ccc3c(c2)N(C[C@@H]2CC[C@H]21)C[C@@]1(CCCc2cc(Cl)ccc21)CO3 [Example 71, 1-(((1S,3′R,6′R,7′R,8′E,11′S, 12′R)-6-chloro-7′-methoxy-11′,12′-dimethyl-13′,13′-dioxido-15′-oxo-3,4-dihydro-2H-spiro[naphthalene-1,22′-[20]oxa[13]thia[1,14]diazatetracyclo [14.7.2.0~3,6~.0~19,24~]pentacosa[8,16,18,24]tetraen]-7′-yl)methyl)-3-methyl-3-azetidinecarbonitrile] | 0.371 nM | 1140 nM |
| CO[C@]1(CN2CCN(Cc3cscn3)CC2)/C=C/C[C@H](C)[C@@H](C)S(=O)(=O)NC(=O)c2ccc3c(c2)N(C[C@@H]2CC[C@H]21)C[C@@]1(CCCc2cc(Cl)ccc21)CO3 [Example 72, (1S,3′R,6′R,7′R,8′E,11′S,12′R)-6-chloro-7′-methoxy-11′,12′-dimethyl-7′-((4-(1,3-thiazol-4-ylmethyl)-1-piperazinyl)methyl)-3,4-dihydro-2H,15′H-spiro[naphthalene-1,22′-[20]oxa[13]thia[1,14]diazatetracyclo [14.7.2.0~3,6~.0~19,24~]pentacosa[8,16,18,24]tetraen]-15′-one 13′,13′-dioxide] | 0.8 nM | 185 nM |
| CO[C@]1(CN2CCN(CCS(C)(=O)=O)CC2)/C=C/C[C@H](C)[C@@H](C)S(=O)(=O)NC(=O)c2ccc3c(c2)N(C[C@@H]2CC[C@H]21)C[C@@]1(CCCc2cc(Cl)ccc21)CO3 [Example 73, (1S,3′R,6′R,7′R,8′E,11′S,12′R)-6-chloro-7′-methoxy-11′,12′-dimethyl-7′-((4-(2-(methylsulfonyl)ethyl)-1-piperazinyl)methyl)-3,4-dihydro-2H,15′H-spiro[naphthalene-1,22′-[20]oxa[13]thia[1,14]diazatetracyclo [14.7.2.0~3,6~.0~19,24~]pentacosa[8,16,18,24]tetraen]-15′-one 13′,13′-dioxide] | 0.609 nM | 129 nM |
